Assay results published in ChEMBL document CHEMBL4715829, “Heterodimeric Rifampicin-Tobramycin conjugates break intrinsic resistance of Pseudomonas aeruginosa to doxycycline and chloramphenicol in vitro and in a Galleria mellonella in vivo model” (Eur J Med Chem, 2019).
In brackets after ≈: the same amount, converted by molar mass.

Tests used:
[1] = tested on: Pseudomonas aeruginosa; experiment: Antibacterial activity against Pseudomonas aeruginosa PAO1 assessed as reduction in bacterial growth by measuring cefotaxime MIC at <=[…] uM in presence of cefotaxime incubated for 18 hrs by broth microdilution assay based checkerboard assay (reference value: […] microg/ml); assay type: functional; details: dose microM <=10
[2] = tested on: Pseudomonas aeruginosa; experiment: Antibacterial activity against gentamicin, tobramycin-resistant Pseudomonas aeruginosa CANWARD 96846 assessed as reduction in bacterial growth incubated for 18 hrs by broth microdilution assay; assay type: functional
[3] = tested on: Staphylococcus epidermidis; experiment: Antibacterial activity against methicillin-resistance Staphylococcus epidermidis CAN-ICU 61589 (CAZ>32) assessed as reduction in bacterial growth incubated for 18 hrs by broth microdilution assay; assay type: functional
[4] = tested on: Pseudomonas aeruginosa; experiment: Antibacterial activity against Pseudomonas aeruginosa PAO1 assessed as reduction in bacterial growth by measuring rifampicin MIC at <=[…] uM in presence of rifampicin incubated for 18 hrs by broth microdilution assay based checkerboard assay (reference value: […] microg/ml); assay type: functional; details: dose microM <=10
[5] = tested on: Pseudomonas aeruginosa; experiment: Antibacterial activity against Pseudomonas aeruginosa PAO1 assessed as reduction in bacterial growth by measuring tigecycline MIC at <=10 uM in presence of tigecycline incubated for 18 hrs by broth microdilution assay based checkerboard assay (reference value: 4 microg/ml); assay type: functional; details: dose microM <=10
[6] = tested on: Pseudomonas aeruginosa; experiment: Antibacterial activity against Pseudomonas aeruginosa PAO1 assessed as fractional inhibitory concentration index in presence of Doxycycline incubated for 18 hrs by broth microdilution assay based checkerboard assay; assay type: functional
[7] = tested on: Pseudomonas aeruginosa; experiment: Antibacterial activity against Pseudomonas aeruginosa PAO1 assessed as reduction in bacterial growth by measuring ceftazidime MIC at <=10 uM in presence of ceftazidime incubated for 18 hrs by broth microdilution assay based checkerboard assay (reference value: 2 microg/ml); assay type: functional; details: dose microM <=10
[8] = tested on: Pseudomonas aeruginosa; experiment: Antibacterial activity against Pseudomonas aeruginosa PAO1 assessed as fractional inhibitory concentration index in presence of Ceftazidime incubated for 18 hrs by broth microdilution assay based checkerboard assay; assay type: functional
[9] = tested on: Pseudomonas aeruginosa; experiment: Antibacterial activity against Pseudomonas aeruginosa 101885 assessed as reduction in bacterial growth incubated for 18 hrs by broth microdilution assay; assay type: functional
[10] = tested on: Staphylococcus aureus; experiment: Antibacterial activity against Staphylococcus aureus ATCC 29213 assessed as reduction in bacterial growth incubated for 18 hrs by broth microdilution assay; assay type: functional
[11] = tested on: Pseudomonas aeruginosa; experiment: Antibacterial activity against wild type Pseudomonas aeruginosa PAO1 assessed as reduction in bacterial growth incubated for 18 hrs by broth microdilution assay; assay type: functional
[12] = tested on: Acinetobacter baumannii; experiment: Antibacterial activity against Acinetobacter baumannii CAN-ICU 63169 assessed as reduction in bacterial growth incubated for 18 hrs by broth microdilution assay; assay type: functional
[13] = Hemolytic activity in porcine erythrocyte at 1024 ug/ml incubated for 1 hr; assay type: ADME, cell-based, Sus scrofa; details: pig, porcine erythrocytes, at 1024 µg/mL, read-out: Activity
[14] = tested on: Pseudomonas aeruginosa; experiment: Antibacterial activity against gentamicin-resistant Pseudomonas aeruginosa CAN-ICU 62308 assessed as reduction in bacterial growth incubated for 18 hrs by broth microdilution assay; assay type: functional
[15] = tested on: Pseudomonas aeruginosa; experiment: Antibacterial activity against Pseudomonas aeruginosa PAO1 assessed as fractional inhibitory concentration index in presence of Moxifloxacin incubated for 18 hrs by broth microdilution assay based checkerboard assay; assay type: functional
[16] = tested on: Pseudomonas aeruginosa; experiment: Antibacterial activity against Pseudomonas aeruginosa PAO1 assessed as reduction in bacterial growth by measuring clindamycin MIC at <=10 uM in presence of clindamycin incubated for 18 hrs by broth microdilution assay based checkerboard assay (reference value: 1024 microg/ml); assay type: functional; details: dose microM <=10
[17] = tested on: Pseudomonas aeruginosa; experiment: Antibacterial activity against Pseudomonas aeruginosa PAO1 assessed as reduction in bacterial growth by measuring nitrofurantoin MIC at <=10 uM in presence of nitrofurantoin incubated for 18 hrs by broth microdilution assay based checkerboard assay (reference value: 512 microg/ml); assay type: functional; details: dose microM <=10
[18] = tested on: Pseudomonas aeruginosa; experiment: Antibacterial activity against Pseudomonas aeruginosa 260-97103 assessed as reduction in bacterial growth incubated for 18 hrs by broth microdilution assay; assay type: functional
[19] = tested on: Staphylococcus epidermidis; experiment: Antibacterial activity against methicillin-susceptible Staphylococcus epidermidis CANWARD 81388 assessed as reduction in bacterial growth incubated for 18 hrs by broth microdilution assay; assay type: functional
[20] = tested on: Pseudomonas aeruginosa; experiment: Antibacterial activity against Pseudomonas aeruginosa PAO1 assessed as fractional inhibitory concentration index in presence of Nitrofurantoin incubated for 18 hrs by broth microdilution assay based checkerboard assay; assay type: functional
[21] = tested on: Pseudomonas aeruginosa; experiment: Antibacterial activity against Pseudomonas aeruginosa PAO1 assessed as fractional inhibitory concentration index in presence of Erythromycin incubated for 18 hrs by broth microdilution assay based checkerboard assay; assay type: functional
[22] = tested on: Escherichia coli; experiment: Antibacterial activity against gentamicin, tobramycin, ciprofloxacin-resistant Escherichia coli ATCC 97615 harboring aac(3')IIa gene assessed as reduction in bacterial growth incubated for 18 hrs by broth microdilution assay; assay type: functional
[23] = tested on: Pseudomonas aeruginosa; experiment: Antibacterial activity against Pseudomonas aeruginosa 101243 assessed as reduction in bacterial growth incubated for 18 hrs by broth microdilution assay; assay type: functional
[24] = tested on: Pseudomonas aeruginosa; experiment: Antibacterial activity against Pseudomonas aeruginosa 259-96918 assessed as reduction in bacterial growth incubated for 18 hrs by broth microdilution assay; assay type: functional
[25] = tested on: Pseudomonas aeruginosa; experiment: Antibacterial activity against Pseudomonas aeruginosa 114228 assessed as reduction in bacterial growth incubated for 18 hrs by broth microdilution assay; assay type: functional
[26] = tested on: Pseudomonas aeruginosa; experiment: Antibacterial activity against Pseudomonas aeruginosa PAO1 assessed as reduction in bacterial growth by measuring erythromycin MIC at <=10 uM in presence of erythromycin incubated for 18 hrs by broth microdilution assay based checkerboard assay (reference value: 256 microg/ml); assay type: functional; details: dose microM <=10
[27] = tested on: Pseudomonas aeruginosa; experiment: Antibacterial activity against Pseudomonas aeruginosa PAO1 assessed as reduction in bacterial growth by measuring minocycline MIC at <=10 uM in presence of minocycline incubated for 18 hrs by broth microdilution assay based checkerboard assay (reference value: 8 microg/ml); assay type: functional; details: dose microM <=10
[28] = Cytotoxicity against human HEK293 cells assessed as cell viability at 50 uM incubated for 48 hrs by prestoblue assay; assay type: cell-based; details: read-out: Activity
[29] = tested on: Pseudomonas aeruginosa; experiment: Antibacterial activity against Pseudomonas aeruginosa PAO1 assessed as fractional inhibitory concentration index in presence of Cefotaxime incubated for 18 hrs by broth microdilution assay based checkerboard assay; assay type: functional
[30] = Cytotoxicity against human HepG2 cells assessed as cell viability at 50 uM incubated for 48 hrs by prestoblue assay; assay type: cell-based; details: read-out: Activity
[31] = tested on: Pseudomonas aeruginosa; experiment: Antibacterial activity against Pseudomonas aeruginosa PAO1 assessed as fractional inhibitory concentration index in presence of Clindamycin incubated for 18 hrs by broth microdilution assay based checkerboard assay; assay type: functional
[32] = tested on: Pseudomonas aeruginosa; experiment: Antibacterial activity against Pseudomonas aeruginosa 100036 assessed as fractional inhibitory concentration index in presence of chloramphenicol incubated for 18 hrs by broth microdilution assay; assay type: functional
[33] = tested on: Pseudomonas aeruginosa; experiment: Antibacterial activity against Pseudomonas aeruginosa 259-96918 assessed as fractional inhibitory concentration index in presence of chloramphenicol incubated for 18 hrs by broth microdilution assay; assay type: functional
[34] = tested on: Pseudomonas aeruginosa; experiment: Antibacterial activity against Pseudomonas aeruginosa 264-101354 assessed as fractional inhibitory concentration index in presence of doxycycline incubated for 18 hrs by broth microdilution assay; assay type: functional
[35] = tested on: Pseudomonas aeruginosa; experiment: Antibacterial activity against Pseudomonas aeruginosa 91433 assessed as fractional inhibitory concentration index in presence of chloramphenicol incubated for 18 hrs by broth microdilution assay; assay type: functional
[36] = tested on: Pseudomonas aeruginosa; experiment: Antibacterial activity against Pseudomonas aeruginosa 259-96918 assessed as fractional inhibitory concentration index in presence of doxycycline incubated for 18 hrs by broth microdilution assay; assay type: functional

| SMILES | MIC [1] [µg/mL] | MIC [2] [µg/mL] | MIC [3] [µg/mL] | MIC [4] [µg/mL] | MIC [5] [µg/mL] | fractional inhibitory concentration index (FICI) [6] | MIC [7] [µg/mL] | fractional inhibitory concentration index (FICI) [8] | MIC [9] [µg/mL] | MIC [10] [µg/mL] | MIC [11] [µg/mL] | MIC [12] [µg/mL] | hemolysis at 1 h, 1024 ug/ml [13] [%] | MIC [14] [µg/mL] | MIC [18] [µg/mL] | MIC [19] [µg/mL] | MIC [22] [µg/mL] | MIC [23] [µg/mL] | MIC [24] [µg/mL] | MIC [25] [µg/mL] | also measured |
| --- | --- | --- | --- | --- | --- | --- | --- | --- | --- | --- | --- | --- | --- | --- | --- | --- | --- | --- | --- | --- | --- |
| CO[C@H]1/C=C/O[C@@]2(C)Oc3c(C)c(O)c4c(O)c(c(/C=N/N5CCN(Cc6cn(CCCCO[C@@H]7[C@@H](O[C@H]8O[C@H](CO)[C@@H](O)[C@H](N)[C@H]8O)[C@H](N)C[C@H](N)[C@H]7O[C@H]7O[C@H](CN)[C@@H](O)C[C@H]7N)nn6)CC5)c(O)c4c3C2=O)NC(=O)/C(C)=C\C=C\[C@H](C)[C@H](O)[C@@H](C)[C@@H](O)[C@@H](C)[C@H](OC(C)=O)[C@@H]1C.O=C(O)C(F)(F)F.O=C(O)C(F)(F)F.O=C(O)C(F)(F)F.O=C(O)C(F)(F)F.O=C(O)C(F)(F)F | 16 | > 32 | 2 | 4 | 2 | 0.09 | 2 | 1.03 | 256 | 4 | 512 | > 32 | < 2 | > 32 | > 128 | 2 | > 32 | 256 | > 128 | > 128 | fractional inhibitory concentration index (FICI) [15]: 1.03; MIC [16]: 512 µg/mL; MIC [17]: 512 µg/mL; fractional inhibitory concentration index (FICI) [20]: 1; fractional inhibitory concentration index (FICI) [21]: 0.53; MIC [26]: 128 µg/mL; MIC [27]: 2 µg/mL; viability at 48 h, 50 µM [28]: > 70%; fractional inhibitory concentration index (FICI) [29]: 1.03; viability at 48 h, 50 µM [30]: > 70%; fractional inhibitory concentration index (FICI) [31]: 0.53 |
| CO[C@H]1/C=C/O[C@@]2(C)Oc3c(C)c(O)c4c(O)c(c(/C=N/N5CCN(Cc6cn(CCCCCCCCCCCCO[C@@H]7[C@@H](O[C@H]8O[C@H](CO)[C@@H](O)[C@H](N)[C@H]8O)[C@H](N)C[C@H](N)[C@H]7O[C@H]7O[C@H](CN)[C@@H](O)C[C@H]7N)nn6)CC5)c(O)c4c3C2=O)NC(=O)/C(C)=C\C=C\[C@H](C)[C@H](O)[C@@H](C)[C@@H](O)[C@@H](C)[C@H](OC(C)=O)[C@@H]1C.O=C(O)C(F)(F)F.O=C(O)C(F)(F)F.O=C(O)C(F)(F)F.O=C(O)C(F)(F)F.O=C(O)C(F)(F)F | 16 | > 32 | 8 | 2 | 2 | 0.09 | 2 | 1.03 | 256 | 16 | 512 | > 32 | < 2 | > 32 | > 128 | 4 | 32 | 256 | > 128 | > 128 | fractional inhibitory concentration index (FICI) [32]: 0.067; fractional inhibitory concentration index (FICI) [33]: <0.625; fractional inhibitory concentration index (FICI) [34]: 0.078; fractional inhibitory concentration index (FICI) [15]: 1.03; MIC [16]: 256 µg/mL; MIC [17]: 256 µg/mL; fractional inhibitory concentration index (FICI) [20]: 0.53; fractional inhibitory concentration index (FICI) [21]: 0.06; fractional inhibitory concentration index (FICI) [35]: 0.25; MIC [26]: 8 µg/mL; MIC [27]: 2 µg/mL; viability at 48 h, 50 µM [28]: > 70%; fractional inhibitory concentration index (FICI) [36]: <0.133; fractional inhibitory concentration index (FICI) [29]: 1.03; viability at 48 h, 50 µM [30]: > 70%; fractional inhibitory concentration index (FICI) [31]: 0.26 |
| CO[C@H]1/C=C/O[C@@]2(C)Oc3c(C)c(O)c4c(O)c(c(/C=N/N5CCN(C)CC5)c(O)c4c3C2=O)NC(=O)/C(C)=C\C=C\[C@H](C)[C@H](O)[C@@H](C)[C@@H](O)[C@@H](C)[C@H](OC(C)=O)[C@@H]1C [RIFAMPIN] | – | 32 (≈ 38.9 µM) | ≤ 0.25 | – | – | – | – | – | 32 (≈ 38.9 µM) | ≤ 0.25 | 16 (≈ 19.4 µM) | 8 (≈ 9.72 µM) | – | 32 (≈ 38.9 µM) | 16 (≈ 19.4 µM) | ≤ 0.25 | 16 (≈ 19.4 µM) | 4 (≈ 4.86 µM) | 16 (≈ 19.4 µM) | 16 (≈ 19.4 µM) | fractional inhibitory concentration index (FICI) [32]: 1.5 |
